Laboratory results published in ChEMBL document CHEMBL1275296, “Synthesis and antimicrobial studies of thiazolotriazinones” (2010).
≈ marks a conversion by molar mass, not a printed value. Calls of active or inactive are those of the source. The calls are words filed in the database; no cut-off is given here.

Legend:
Klebsiella pneumoniae [1] = assay: Antibacterial activity against Klebsiella pneumoniae after 24 hrs by broth dilution method; assay type: functional
Aspergillus flavus [2] = assay: Antifungal activity against Aspergillus flavus at >100 ug/mL after 48 hrs; assay type: functional, organism-based
Pseudomonas aeruginosa [3] = assay: Antibacterial activity against Pseudomonas aeruginosa after 24 hrs by broth dilution method; assay type: functional
Candida albicans [4] = assay: Antifungal activity against Candida albicans by measuring inhibition zone after 48 hrs; assay type: functional
Aspergillus fumigatus [5] = assay: Antifungal activity against Aspergillus fumigatus by measuring inhibition zone after 48 hrs; assay type: functional
Streptococcus pyogenes [6] = assay: Antibacterial activity against Streptococcus pyogenes after 24 hrs; assay type: functional
Aspergillus fumigatus [7] = assay: Antifungal activity against Aspergillus fumigatus after 48 hrs; assay type: functional
Staphylococcus aureus [8] = assay: Antibacterial activity against Staphylococcus aureus after 24 hrs; assay type: functional
Escherichia coli [9] = assay: Antibacterial activity against Escherichia coli after 24 hrs by broth dilution method; assay type: functional
Talaromyces marneffei [10] = assay: Antifungal activity against Penicillium marneffei at >100 ug/mL after 48 hrs; assay type: functional, organism-based
Staphylococcus aureus [11] = assay: Antibacterial activity against Staphylococcus aureus after 24 hrs by broth dilution method; assay type: functional
Streptococcus pyogenes [12] = assay: Antibacterial activity against Streptococcus pyogenes after 24 hrs by broth dilution method; assay type: functional
[13] = tested on: Trichophyton mentagrophytes; assay: Antifungal activity against Trichophyton mentagrophytes by measuring inhibition zone after 48 hrs; assay type: functional
Candida albicans [14] = assay: Antifungal activity against Candida albicans after 48 hrs; assay type: functional
[15] = tested on: Trichophyton mentagrophytes; assay: Antifungal activity against Trichophyton mentagrophytes after 48 hrs; assay type: functional
Pseudomonas aeruginosa [16] = assay: Antibacterial activity against Pseudomonas aeruginosa after 24 hrs; assay type: functional
Klebsiella pneumoniae [17] = assay: Antibacterial activity against Klebsiella pneumoniae after 24 hrs; assay type: functional
Escherichia coli [18] = assay: Antibacterial activity against Escherichia coli after 24 hrs; assay type: functional
Aspergillus flavus [19] = assay: Antifungal activity against Aspergillus flavus after 48 hrs; assay type: functional
Aspergillus flavus [20] = assay: Antifungal activity against Aspergillus flavus by measuring inhibition zone after 48 hrs; assay type: functional
Talaromyces marneffei [21] = assay: Antifungal activity against Penicillium marneffei by measuring inhibition zone after 48 hrs; assay type: functional
Talaromyces marneffei [22] = assay: Antifungal activity against Penicillium marneffei after 48 hrs; assay type: functional
Aspergillus fumigatus [23] = assay: Antifungal activity against Aspergillus fumigatus at >100 ug/mL after 48 hrs; assay type: functional, organism-based
Escherichia coli [24] = assay: Antibacterial activity against Escherichia coli at >100 ug/mL after 24 hrs by broth dilution method; assay type: functional, organism-based
Candida albicans [25] = assay: Antifungal activity against Candida albicans at >100 ug/mL after 48 hrs; assay type: functional, organism-based
[26] = tested on: Trichophyton mentagrophytes; assay: Antifungal activity against Trichophyton mentagrophytes at >100 ug/mL after 48 hrs; assay type: functional, organism-based
Klebsiella pneumoniae [27] = assay: Antibacterial activity against Klebsiella pneumoniae at >100 ug/mL after 24 hrs by broth dilution method; assay type: functional, organism-based
Pseudomonas aeruginosa [28] = assay: Antibacterial activity against Pseudomonas aeruginosa at >100 ug/mL after 24 hrs by broth dilution method; assay type: functional, organism-based

| SMILES | MIC (Klebsiella pneumoniae [1]) | MIC (Pseudomonas aeruginosa [3]) | MIC (Aspergillus fumigatus [7]) | MIC (Escherichia coli [9]) | MIC (Staphylococcus aureus [11]) | MIC (Streptococcus pyogenes [12]) | MIC (Candida albicans [14]) | MIC [15] | MIC (Aspergillus flavus [19]) | MIC (Talaromyces marneffei [22]) | inhibition zone (IZ) (Candida albicans [4]) | inhibition zone (IZ) (Aspergillus fumigatus [5]) | inhibition zone (IZ) (Streptococcus pyogenes [6]) | inhibition zone (IZ) (Staphylococcus aureus [8]) | inhibition zone (IZ) [13] | inhibition zone (IZ) (Pseudomonas aeruginosa [16]) | inhibition zone (IZ) (Klebsiella pneumoniae [17]) | inhibition zone (IZ) (Escherichia coli [18]) | inhibition zone (IZ) (Aspergillus flavus [20]) | inhibition zone (IZ) (Talaromyces marneffei [21]) | further results |
| --- | --- | --- | --- | --- | --- | --- | --- | --- | --- | --- | --- | --- | --- | --- | --- | --- | --- | --- | --- | --- | --- |
| COc1ccc(-c2csc3nnc(Cc4ccc(Cl)cc4)c(=O)n23)cc1 | 6.25 µg/mL (≈ 16.3 µM) | 12.5 µg/mL (≈ 32.6 µM) | – | – | 12.5 µg/mL (≈ 32.6 µM) | 25 µg/mL (≈ 65.1 µM) | 12.5 µg/mL (≈ 32.6 µM) | 12.5 µg/mL (≈ 32.6 µM) | 6.25 µg/mL (≈ 16.3 µM) | 25 µg/mL (≈ 65.1 µM) | 11 mm | – | 10 mm | 12 mm | 14 mm | 14 mm | 19 mm | – | 19 mm | 9 mm | inhibition (Aspergillus fumigatus [23]): inactive; inhibition (Escherichia coli [24]): inactive |
| COc1ccc(-c2csc3nnc(Cc4ccc(Cl)cc4Cl)c(=O)n23)cc1 | – | – | 6.25 µg/mL (≈ 14.9 µM) | 6.25 µg/mL (≈ 14.9 µM) | 12.5 µg/mL (≈ 29.9 µM) | 25 µg/mL (≈ 59.8 µM) | 6.25 µg/mL (≈ 14.9 µM) | 6.25 µg/mL (≈ 14.9 µM) | – | 25 µg/mL (≈ 59.8 µM) | 17 mm | 20 mm | 8 mm | 12 mm | 17 mm | – | – | 22 mm | – | 9 mm | inhibition (Aspergillus flavus [2]): inactive; inhibition (Pseudomonas aeruginosa [28]): inactive; inhibition (Klebsiella pneumoniae [27]): inactive |
| C[C@@H]1[C@H](O)[C@@H](C)/C=C/C=C/C=C/C=C/C=C/C=C/C=C/[C@H](O[C@@H]2O[C@H](C)[C@@H](O)[C@H](N)[C@@H]2O)C[C@@H]2O[C@](O)(C[C@@H](O)C[C@@H](O)[C@H](O)CC[C@@H](O)C[C@@H](O)CC(=O)O[C@H]1C)C[C@H](O)[C@H]2C(=O)O [AMPHOTERICIN B] | – | – | 6.25 µg/mL (≈ 6.76 µM) | – | – | – | 6.25 µg/mL (≈ 6.76 µM) | 6.25 µg/mL (≈ 6.76 µM) | 6.25 µg/mL (≈ 6.76 µM) | 6.25 µg/mL (≈ 6.76 µM) | 19 mm | 25 mm | – | – | 23 mm | – | – | – | 21 mm | 25 mm | – |
| O=C(O)c1cn(C2CC2)c2cc(N3CCNCC3)c(F)cc2c1=O [CIPROFLOXACIN] | 6.25 µg/mL (≈ 18.9 µM) | – | – | – | – | 6.25 µg/mL (≈ 18.9 µM) | – | – | – | – | – | – | 25 mm | 23 mm | – | 33 mm | 22 mm | 30 mm | – | – | – |
| O=c1c(Cc2ccc(Cl)cc2)nnc2scc(-c3ccc([N+](=O)[O-])cc3)n12 | – | 25 µg/mL (≈ 62.7 µM) | 6.25 µg/mL (≈ 15.7 µM) | 6.25 µg/mL (≈ 15.7 µM) | 25 µg/mL (≈ 62.7 µM) | 25 µg/mL (≈ 62.7 µM) | 6.25 µg/mL (≈ 15.7 µM) | 25 µg/mL (≈ 62.7 µM) | – | 6.25 µg/mL (≈ 15.7 µM) | 18 mm | 15 mm | 9 mm | 9 mm | 7 mm | 8 mm | – | 25 mm | – | 21 mm | inhibition (Aspergillus flavus [2]): inactive; inhibition (Klebsiella pneumoniae [27]): inactive |

Now from value to compound, other results behind:

| MIC (Klebsiella pneumoniae [1]) | MIC (Pseudomonas aeruginosa [3]) | MIC (Aspergillus fumigatus [7]) | MIC (Escherichia coli [9]) | MIC (Staphylococcus aureus [11]) | MIC (Streptococcus pyogenes [12]) | MIC (Candida albicans [14]) | MIC [15] | MIC (Aspergillus flavus [19]) | MIC (Talaromyces marneffei [22]) | SMILES | inhibition zone (IZ) (Candida albicans [4]) | inhibition zone (IZ) (Aspergillus fumigatus [5]) | inhibition zone (IZ) (Streptococcus pyogenes [6]) | inhibition zone (IZ) (Staphylococcus aureus [8]) | inhibition zone (IZ) [13] | inhibition zone (IZ) (Pseudomonas aeruginosa [16]) | inhibition zone (IZ) (Klebsiella pneumoniae [17]) | inhibition zone (IZ) (Escherichia coli [18]) | inhibition zone (IZ) (Aspergillus flavus [20]) | inhibition zone (IZ) (Talaromyces marneffei [21]) | further results |
| --- | --- | --- | --- | --- | --- | --- | --- | --- | --- | --- | --- | --- | --- | --- | --- | --- | --- | --- | --- | --- | --- |
| 6.25 µg/mL (≈ 14.4 µM) | 12.5 µg/mL (≈ 28.9 µM) | 25 µg/mL (≈ 57.8 µM) | 25 µg/mL (≈ 57.8 µM) | 6.25 µg/mL (≈ 14.4 µM) | 6.25 µg/mL (≈ 14.4 µM) | 6.25 µg/mL (≈ 14.4 µM) | 12.5 µg/mL (≈ 28.9 µM) | – | – | O=c1c(Cc2ccc(Cl)cc2)nnc2scc(-c3ccc(Br)cc3)n12 | 17 mm | 8 mm | 21 mm | 23 mm | 12 mm | 14 mm | 19 mm | 9 mm | – | – | inhibition (Aspergillus flavus [2]): inactive; inhibition (Talaromyces marneffei [10]): inactive |
| 6.25 µg/mL (≈ 13.4 µM) | 6.25 µg/mL (≈ 13.4 µM) | 12.5 µg/mL (≈ 26.8 µM) | 6.25 µg/mL (≈ 13.4 µM) | 6.25 µg/mL (≈ 13.4 µM) | 6.25 µg/mL (≈ 13.4 µM) | 25 µg/mL (≈ 53.5 µM) | 12.5 µg/mL (≈ 26.8 µM) | 6.25 µg/mL (≈ 13.4 µM) | – | O=c1c(Cc2ccc(Cl)cc2Cl)nnc2scc(-c3ccc(Br)cc3)n12 | 7 mm | 12 mm | 20 mm | 21 mm | 11 mm | 29 mm | 18 mm | 26 mm | 16 mm | – | inhibition (Talaromyces marneffei [10]): inactive |
| 6.25 µg/mL (≈ 14.8 µM) | 6.25 µg/mL (≈ 14.8 µM) | 6.25 µg/mL (≈ 14.8 µM) | 6.25 µg/mL (≈ 14.8 µM) | 6.25 µg/mL (≈ 14.8 µM) | 6.25 µg/mL (≈ 14.8 µM) | 6.25 µg/mL (≈ 14.8 µM) | 6.25 µg/mL (≈ 14.8 µM) | 6.25 µg/mL (≈ 14.8 µM) | 6.25 µg/mL (≈ 14.8 µM) | O=c1c(Cc2ccc(Cl)cc2Cl)nnc2scc(-c3ccc(Cl)cc3)n12 | 18 mm | 24 mm | 23 mm | 21 mm | 21 mm | 32 mm | 19 mm | 29 mm | 21 mm | 23 mm | – |
| 6.25 µg/mL (≈ 14.2 µM) | 6.25 µg/mL (≈ 14.2 µM) | 6.25 µg/mL (≈ 14.2 µM) | 6.25 µg/mL (≈ 14.2 µM) | 6.25 µg/mL (≈ 14.2 µM) | 6.25 µg/mL (≈ 14.2 µM) | 6.25 µg/mL (≈ 14.2 µM) | 6.25 µg/mL (≈ 14.2 µM) | 6.25 µg/mL (≈ 14.2 µM) | 6.25 µg/mL (≈ 14.2 µM) | O=c1c(Cc2ccc(Cl)cc2)nnc2scc(-c3cc(F)c(Cl)cc3Cl)n12 | 17 mm | 25 mm | 24 mm | 21 mm | 21 mm | 29 mm | 18 mm | 27 mm | 18 mm | 25 mm | – |
| – | 6.25 µg/mL (≈ 14.4 µM) | – | 12.5 µg/mL (≈ 28.8 µM) | 6.25 µg/mL (≈ 14.4 µM) | 6.25 µg/mL (≈ 14.4 µM) | – | – | 12.5 µg/mL (≈ 28.8 µM) | 12.5 µg/mL (≈ 28.8 µM) | O=c1c(Cc2ccc(Cl)cc2Cl)nnc2scc(-c3ccc([N+](=O)[O-])cc3)n12 | – | – | 17 mm | 20 mm | – | 27 mm | – | 15 mm | 14 mm | 10 mm | inhibition (Aspergillus fumigatus [23]): inactive; inhibition (Candida albicans [25]): inactive; inhibition [26]: inactive; inhibition (Klebsiella pneumoniae [27]): inactive |
| 6.25 µg/mL (≈ 13.2 µM) | 6.25 µg/mL (≈ 13.2 µM) | 6.25 µg/mL (≈ 13.2 µM) | 6.25 µg/mL (≈ 13.2 µM) | 6.25 µg/mL (≈ 13.2 µM) | 6.25 µg/mL (≈ 13.2 µM) | 6.25 µg/mL (≈ 13.2 µM) | 6.25 µg/mL (≈ 13.2 µM) | 6.25 µg/mL (≈ 13.2 µM) | 6.25 µg/mL (≈ 13.2 µM) | O=c1c(Cc2ccc(Cl)cc2Cl)nnc2scc(-c3cc(F)c(Cl)cc3Cl)n12 | 20 mm | 24 mm | 24 mm | 21 mm | 22 mm | 31 mm | 19 mm | 29 mm | 21 mm | 25 mm | – |
| 6.25 µg/mL (≈ 16.1 µM) | 6.25 µg/mL (≈ 16.1 µM) | 6.25 µg/mL (≈ 16.1 µM) | 6.25 µg/mL (≈ 16.1 µM) | 6.25 µg/mL (≈ 16.1 µM) | 6.25 µg/mL (≈ 16.1 µM) | 6.25 µg/mL (≈ 16.1 µM) | 6.25 µg/mL (≈ 16.1 µM) | 6.25 µg/mL (≈ 16.1 µM) | 6.25 µg/mL (≈ 16.1 µM) | O=c1c(Cc2ccc(Cl)cc2)nnc2scc(-c3ccc(Cl)cc3)n12 | 20 mm | 22 mm | 23 mm | 23 mm | 25 mm | 33 mm | 20 mm | 26 mm | 22 mm | 22 mm | – |
